Reference: ChEMBL document CHEMBL3763120, “Phenyl Benzenesulfonylhydrazides Exhibit Selective Indoleamine 2,3-Dioxygenase Inhibition with Potent in Vivo Pharmacodynamic Activity and Antitumor Efficacy” (J Med Chem, 2016)

Legend:
[1] = molecular target: Delta-type opioid receptor (Homo sapiens) (UniProt P41143); test: Inhibition of Opiate delta1 receptor (unknown origin) at 10 uM
Homo sapiens [2] = organism: Homo sapiens; test: Inhibition of Purinergic P2X receptor (unknown origin) at 10 uM
Homo sapiens [3] = organism: Homo sapiens; test: Inhibition of Nicotinic acetylcholine receptor (unknown origin) at 10 uM
Homo sapiens [4] = organism: Homo sapiens; test: Inhibition of GABAA receptor central muscimol site (unknown origin) at 10 uM
Mus musculus [5] = test: Toxicity in BalB/c mouse xenografted with CT26 cells assessed as change in body weight at 100 to 400 mg/kg, po bid for 22 days; format: organism-based; details: in vivo, 528 h
CT26 [6] = test: Antitumor activity against mouse CT26 cells xenografted in Balb/c mouse assessed as median time to end point at 400 mg/kg, po bid for 22 days; format: functional
[7] = molecular target: Acetylcholine receptor subunit alpha (Homo sapiens) (UniProt P02708); test: Inhibition of Nicotinic acetylcholine alpha1 bungarotoxin binding site (unknown origin) at 10 uM
Sequence of Acetylcholine receptor subunit alpha (Homo sapiens) (P02708 whole entry): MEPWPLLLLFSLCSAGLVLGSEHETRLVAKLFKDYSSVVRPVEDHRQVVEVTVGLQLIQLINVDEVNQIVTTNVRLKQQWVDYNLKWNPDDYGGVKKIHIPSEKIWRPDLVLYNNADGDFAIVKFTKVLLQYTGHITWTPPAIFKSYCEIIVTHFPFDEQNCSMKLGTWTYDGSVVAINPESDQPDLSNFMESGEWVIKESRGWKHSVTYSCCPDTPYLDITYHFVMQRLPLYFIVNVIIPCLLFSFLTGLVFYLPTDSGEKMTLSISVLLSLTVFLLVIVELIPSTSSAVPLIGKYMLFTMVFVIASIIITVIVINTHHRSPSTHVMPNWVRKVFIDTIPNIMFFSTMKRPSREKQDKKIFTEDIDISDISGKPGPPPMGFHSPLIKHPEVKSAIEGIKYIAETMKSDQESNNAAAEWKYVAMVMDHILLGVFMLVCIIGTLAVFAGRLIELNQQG

[8] = molecular target: Prostaglandin E2 receptor EP4 subtype (Homo sapiens) (UniProt P35408); test: Inhibition of Prostaglandin E2 receptor EP4 (unknown origin) at 10 uM
Mus musculus [9] = test: Decrease in ratio of kynurenine to tryptophan in Balb/c mouse tumor xenografted with CT26 cells at 100 mg/kg bid for 18 days administered via oral gavage after 6 hrs by LC-MS/MS analysis; format: functional
[10] = molecular target: Alpha-2A adrenergic receptor (Homo sapiens) (UniProt P08913); test: Inhibition of Adrenergic alpha2A receptor (unknown origin) at 10 uM
Homo sapiens [11] = organism: Homo sapiens; test: Inhibition of Platelet-activating factor (unknown origin) at 10 uM
[12] = molecular target: D(3) dopamine receptor (Homo sapiens) (UniProt P35462); test: Inhibition of Dopamine D3 receptor (unknown origin) at 10 uM
Sequence of D(3) dopamine receptor (Homo sapiens) (P35462 whole entry): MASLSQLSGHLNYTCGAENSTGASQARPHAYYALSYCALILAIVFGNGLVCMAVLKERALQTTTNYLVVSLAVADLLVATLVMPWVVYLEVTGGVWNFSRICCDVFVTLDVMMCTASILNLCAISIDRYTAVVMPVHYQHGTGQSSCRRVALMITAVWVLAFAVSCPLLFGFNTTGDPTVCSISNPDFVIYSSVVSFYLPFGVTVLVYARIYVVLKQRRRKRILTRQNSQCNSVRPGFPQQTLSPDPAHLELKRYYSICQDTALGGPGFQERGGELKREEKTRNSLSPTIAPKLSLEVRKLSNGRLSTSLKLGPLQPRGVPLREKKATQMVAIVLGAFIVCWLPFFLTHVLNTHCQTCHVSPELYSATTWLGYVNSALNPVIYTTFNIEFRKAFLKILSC

[13] = molecular target: Histamine H2 receptor (Homo sapiens) (UniProt P25021); test: Inhibition of Histamine H2 receptor (unknown origin) at 10 uM
Sequence of Histamine H2 receptor (Homo sapiens) (P25021 whole entry): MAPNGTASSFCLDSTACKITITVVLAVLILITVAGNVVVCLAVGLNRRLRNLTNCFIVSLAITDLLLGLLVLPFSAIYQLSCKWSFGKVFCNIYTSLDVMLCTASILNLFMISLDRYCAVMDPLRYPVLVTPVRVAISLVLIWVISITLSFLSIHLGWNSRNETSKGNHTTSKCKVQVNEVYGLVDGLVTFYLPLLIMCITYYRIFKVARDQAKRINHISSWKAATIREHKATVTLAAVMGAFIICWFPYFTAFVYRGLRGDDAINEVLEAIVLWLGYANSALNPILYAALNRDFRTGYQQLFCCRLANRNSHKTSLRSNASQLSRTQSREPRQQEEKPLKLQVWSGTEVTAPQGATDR

Mus musculus [14] = test: Decrease in ratio of kynurenine to tryptophan in C57BL/6 mouse at 50 mg/kg, po after 5 hrs by LC-MS/MS analysis; format: functional; details: C57BL/6, po
CT26 [15] = test: Antitumor activity against mouse CT26 cells xenografted in Balb/c mouse assessed as median time to end point at 200 mg/kg, po bid for 22 days; format: functional
Homo sapiens [16] = organism: Homo sapiens; test: Inhibition of I2 imidazoline binding site (unknown origin) at 10 uM
[17] = molecular target: Neuropeptide Y receptor type 2 (Homo sapiens) (UniProt P49146); test: Inhibition of Neuropeptide Y2 receptor (unknown origin) at 10 uM
Homo sapiens [18] = organism: Homo sapiens; test: Inhibition of D4.2 receptor (unknown origin) at 10 uM
CT26 [19] = test: Antitumor activity against mouse CT26 cells xenografted in Balb/c mouse assessed as tumor growth delay at 100 mg/kg, po bid for 22 days; format: functional; details: 528 h, read-out: TGI
[20] = molecular target: Muscarinic acetylcholine receptor M3 (Homo sapiens) (UniProt P20309); test: Inhibition of Muscarinic M3 receptor (unknown origin) at 10 uM
[21] = molecular target: Cannabinoid receptor 1 (Homo sapiens) (UniProt P21554); test: Inhibition of CB1 receptor (unknown origin) at 10 uM
CT26 [22] = test: Antitumor activity against mouse CT26 cells xenografted in Balb/c mouse assessed as reduction in tumor weight at 100 mg/kg bid for 18 days administered via oral gavage; format: functional; details: 432 h
[23] = molecular target: Estrogen receptor (Homo sapiens) (UniProt P03372); test: Inhibition of ERalpha (unknown origin) at 10 uM
Sequence of Estrogen receptor (Homo sapiens) (P03372 whole entry): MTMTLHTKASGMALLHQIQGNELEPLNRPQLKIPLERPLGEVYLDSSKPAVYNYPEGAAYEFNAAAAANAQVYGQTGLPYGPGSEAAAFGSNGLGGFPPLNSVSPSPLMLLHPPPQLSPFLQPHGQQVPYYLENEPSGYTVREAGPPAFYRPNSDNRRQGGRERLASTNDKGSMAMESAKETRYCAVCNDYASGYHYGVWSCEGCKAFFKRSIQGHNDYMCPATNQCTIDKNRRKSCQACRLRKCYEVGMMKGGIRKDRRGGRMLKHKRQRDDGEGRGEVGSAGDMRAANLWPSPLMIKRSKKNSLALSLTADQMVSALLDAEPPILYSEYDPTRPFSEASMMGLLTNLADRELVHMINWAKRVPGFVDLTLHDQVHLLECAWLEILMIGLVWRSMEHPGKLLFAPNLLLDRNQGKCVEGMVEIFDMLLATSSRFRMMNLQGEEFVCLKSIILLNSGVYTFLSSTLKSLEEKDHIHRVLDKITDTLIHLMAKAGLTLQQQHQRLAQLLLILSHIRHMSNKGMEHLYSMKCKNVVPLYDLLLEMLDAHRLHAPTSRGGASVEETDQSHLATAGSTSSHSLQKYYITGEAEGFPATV

[24] = molecular target: Adenosine receptor A3 (Homo sapiens) (UniProt P0DMS8); test: Inhibition of Adenosine A3 receptor (unknown origin) at 10 uM
CT26 [25] = test: Antitumor activity against mouse CT26 cells xenografted in Balb/c mouse assessed as tumor growth delay at 200 mg/kg, po bid for 22 days; format: functional; details: 528 h, read-out: TGI
Homo sapiens [26] = organism: Homo sapiens; test: Inhibition of Phorbol ester receptor (unknown origin) at 10 uM
[27] = molecular target: Glucocorticoid receptor (Homo sapiens) (UniProt P04150); test: Inhibition of Glucocorticoid receptor (unknown origin) at 10 uM
Sequence of Glucocorticoid receptor (Homo sapiens) (P04150 whole entry): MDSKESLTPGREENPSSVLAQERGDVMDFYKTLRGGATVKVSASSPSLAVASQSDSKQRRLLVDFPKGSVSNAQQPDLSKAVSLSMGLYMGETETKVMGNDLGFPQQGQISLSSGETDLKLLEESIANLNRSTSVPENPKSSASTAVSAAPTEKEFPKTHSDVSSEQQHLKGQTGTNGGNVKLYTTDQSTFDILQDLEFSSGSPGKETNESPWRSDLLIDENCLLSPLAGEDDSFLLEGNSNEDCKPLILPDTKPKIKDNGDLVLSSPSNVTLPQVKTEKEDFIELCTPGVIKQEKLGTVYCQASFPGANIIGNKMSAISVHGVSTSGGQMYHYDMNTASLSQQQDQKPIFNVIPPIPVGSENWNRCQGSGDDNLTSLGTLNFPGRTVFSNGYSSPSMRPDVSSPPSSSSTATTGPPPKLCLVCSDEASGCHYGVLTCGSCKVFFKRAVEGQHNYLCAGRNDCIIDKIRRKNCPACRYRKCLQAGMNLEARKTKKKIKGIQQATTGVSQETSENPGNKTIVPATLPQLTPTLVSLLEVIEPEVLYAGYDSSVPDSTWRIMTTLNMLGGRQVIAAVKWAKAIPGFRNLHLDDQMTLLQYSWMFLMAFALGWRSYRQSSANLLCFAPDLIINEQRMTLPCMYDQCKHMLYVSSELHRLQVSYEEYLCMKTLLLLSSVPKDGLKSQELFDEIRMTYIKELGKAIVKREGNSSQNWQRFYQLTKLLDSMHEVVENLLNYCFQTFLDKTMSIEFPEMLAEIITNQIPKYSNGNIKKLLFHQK

[28] = molecular target: Indoleamine 2,3-dioxygenase 1 (Homo sapiens, UniProt P14902); test: Inhibition of human Indoleamine 2,3-dioxygenase using L-tryptophan as substrate by emission fluorescence analysis
[29] = molecular target: Muscarinic acetylcholine receptor M1 (Homo sapiens) (UniProt P11229); test: Inhibition of Muscarinic M1 receptor (unknown origin) at 10 uM
Sequence of Muscarinic acetylcholine receptor M1 (Homo sapiens) (P11229 whole entry): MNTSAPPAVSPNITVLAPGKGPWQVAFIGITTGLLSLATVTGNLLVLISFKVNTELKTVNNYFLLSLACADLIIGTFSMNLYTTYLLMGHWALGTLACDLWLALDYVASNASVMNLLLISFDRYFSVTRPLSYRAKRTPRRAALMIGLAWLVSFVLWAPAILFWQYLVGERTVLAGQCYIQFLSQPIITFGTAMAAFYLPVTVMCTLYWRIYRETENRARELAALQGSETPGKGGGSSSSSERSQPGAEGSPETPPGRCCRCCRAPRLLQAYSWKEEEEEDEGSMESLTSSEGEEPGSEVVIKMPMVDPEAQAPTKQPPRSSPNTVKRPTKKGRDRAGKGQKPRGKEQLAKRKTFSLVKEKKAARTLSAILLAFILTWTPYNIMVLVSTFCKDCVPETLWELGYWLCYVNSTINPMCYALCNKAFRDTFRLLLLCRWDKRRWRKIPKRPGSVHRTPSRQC

hERG (KCNH2) = hERG (KCNH2) (Homo sapiens, UniProt Q12809); test: Inhibition of human ERG at 10 uM
[30] = molecular target: Sodium- and chloride-dependent GABA transporter 1 (Homo sapiens) (UniProt P30531); test: Inhibition of GABA transporter (unknown origin) at 10 uM
[31] = molecular target: Histamine H3 receptor (Homo sapiens) (UniProt Q9Y5N1); test: Inhibition of Histamine H3 receptor (unknown origin) at 10 uM
[32] = molecular target: Androgen receptor (Homo sapiens) (UniProt P10275); test: Inhibition of Androgen receptor (unknown origin) at 10 uM
[33] = Half life in Sprague-Dawley rat plasma at 10 mg/kg, po by LC-MS/MS analysis; format: ADME, organism-based
[34] = molecular target: Thyroid hormone receptor (Homo sapiens) (UniProt P10827+P10828); test: Inhibition of Thyroid hormone receptor (unknown origin) at 10 uM; format: protein-complex assay
[35] = molecular target: Beta-2 adrenergic receptor (Homo sapiens) (UniProt P07550); test: Inhibition of Adrenergic beta2 receptor (unknown origin) at 10 uM
Sequence of Beta-2 adrenergic receptor (Homo sapiens) (P07550 whole entry, looked up): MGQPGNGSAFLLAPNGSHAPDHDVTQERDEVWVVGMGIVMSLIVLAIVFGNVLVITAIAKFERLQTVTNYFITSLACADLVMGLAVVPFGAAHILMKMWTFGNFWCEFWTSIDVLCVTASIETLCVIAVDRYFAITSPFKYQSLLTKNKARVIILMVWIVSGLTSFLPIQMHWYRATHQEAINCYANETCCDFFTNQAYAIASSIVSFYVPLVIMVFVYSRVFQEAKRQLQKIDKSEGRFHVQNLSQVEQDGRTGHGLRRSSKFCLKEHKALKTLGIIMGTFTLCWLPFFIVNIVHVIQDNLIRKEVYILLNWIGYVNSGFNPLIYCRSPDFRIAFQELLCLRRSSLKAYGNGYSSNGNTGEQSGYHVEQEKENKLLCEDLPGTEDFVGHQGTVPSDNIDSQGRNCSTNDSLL

[36] = molecular target: T1, Glutamate [NMDA] receptor (Homo sapiens) (UniProt Q05586+Q12879+Q13224+O15399+O60391+Q14957+Q8TCU5); test: Inhibition of NMDA receptor phencyclidine binding site (unknown origin) at 10 uM
[37] = Cmax in Sprague-Dawley rat plasma at 10 mg/kg, po by LC-MS/MS analysis; format: ADME, organism-based; design: dose 10 mg/kg, route oral
Homo sapiens [38] = organism: Homo sapiens; test: Inhibition of Purinergic P2Y receptor (unknown origin) at 10 uM
[39] = molecular target: T1, Glutamate [NMDA] receptor (Homo sapiens); test: Inhibition of NMDA receptor agonist binding site (unknown origin) at 10 uM
[40] = molecular target: Gamma-aminobutyric acid type B receptor subunit 1 (Homo sapiens) (UniProt Q9UBS5); test: Inhibition of GABAB1A receptor (unknown origin) at 10 uM
[41] = Plasma concentration in C57BL/6 mouse at 50 mg/kg, po after 2 hrs by LC-MS/MS analysis; format: ADME, organism-based
Homo sapiens [42] = organism: Homo sapiens; test: Inhibition of MT1 receptor (unknown origin) at 10 uM
Homo sapiens [43] = organism: Homo sapiens; test: Inhibition of potassium channel (unknown origin) at 10 uM
[44] = Clearance in Sprague-Dawley rat plasma at 2 mg/kg, iv by LC-MS/MS analysis; format: ADME, organism-based
[45] = molecular target: Mu-type opioid receptor (Homo sapiens) (UniProt P35372); test: Inhibition of Opiate mu receptor (unknown origin) at 10 uM
Sequence of Mu-type opioid receptor (Homo sapiens) (P35372 whole entry): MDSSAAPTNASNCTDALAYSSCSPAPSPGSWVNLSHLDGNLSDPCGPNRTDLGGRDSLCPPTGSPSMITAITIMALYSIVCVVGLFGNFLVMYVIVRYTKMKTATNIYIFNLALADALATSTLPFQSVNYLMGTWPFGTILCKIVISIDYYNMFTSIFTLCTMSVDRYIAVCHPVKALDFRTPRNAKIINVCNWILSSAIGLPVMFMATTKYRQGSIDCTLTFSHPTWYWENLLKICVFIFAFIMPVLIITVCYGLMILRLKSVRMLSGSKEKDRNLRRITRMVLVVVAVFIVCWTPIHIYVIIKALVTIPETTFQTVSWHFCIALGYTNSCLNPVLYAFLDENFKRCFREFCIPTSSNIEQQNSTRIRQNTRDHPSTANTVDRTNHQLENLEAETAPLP

[46] = molecular target: Sodium-dependent noradrenaline transporter (Homo sapiens) (UniProt P23975); test: Inhibition of Norepinephrine transporter (unknown origin) at 10 uM
Sequence of Sodium-dependent noradrenaline transporter (Homo sapiens) (P23975 whole entry): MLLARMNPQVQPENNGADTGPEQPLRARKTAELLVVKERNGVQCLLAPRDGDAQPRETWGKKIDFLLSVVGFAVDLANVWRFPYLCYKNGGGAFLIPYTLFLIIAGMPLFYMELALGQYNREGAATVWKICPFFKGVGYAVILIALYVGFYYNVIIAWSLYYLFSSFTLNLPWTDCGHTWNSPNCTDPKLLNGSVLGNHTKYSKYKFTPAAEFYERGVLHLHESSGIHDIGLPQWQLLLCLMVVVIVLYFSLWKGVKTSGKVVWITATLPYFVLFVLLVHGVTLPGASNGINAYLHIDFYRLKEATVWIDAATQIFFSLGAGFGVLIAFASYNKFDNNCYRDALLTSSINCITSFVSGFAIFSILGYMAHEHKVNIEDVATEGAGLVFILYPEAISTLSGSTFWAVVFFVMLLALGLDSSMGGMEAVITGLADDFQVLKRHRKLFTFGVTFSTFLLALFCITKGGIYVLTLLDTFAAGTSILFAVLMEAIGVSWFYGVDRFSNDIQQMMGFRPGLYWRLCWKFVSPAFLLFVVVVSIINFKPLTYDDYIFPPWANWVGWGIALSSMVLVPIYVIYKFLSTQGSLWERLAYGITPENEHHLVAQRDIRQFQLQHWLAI

Sequence of Delta-type opioid receptor (Homo sapiens) (P41143 whole entry): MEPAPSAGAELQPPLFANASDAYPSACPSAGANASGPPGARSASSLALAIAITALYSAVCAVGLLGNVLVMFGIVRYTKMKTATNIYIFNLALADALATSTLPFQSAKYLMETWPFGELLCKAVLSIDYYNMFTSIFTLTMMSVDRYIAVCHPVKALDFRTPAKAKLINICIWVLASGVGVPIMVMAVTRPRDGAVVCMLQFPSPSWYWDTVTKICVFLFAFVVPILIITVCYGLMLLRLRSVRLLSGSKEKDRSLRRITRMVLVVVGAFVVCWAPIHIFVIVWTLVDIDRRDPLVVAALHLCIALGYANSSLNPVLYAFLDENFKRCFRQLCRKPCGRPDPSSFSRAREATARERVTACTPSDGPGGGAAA

Structure (SMILES): O=C1Cc2cc(S(=O)(=O)NNc3ccc(Br)cc3)ccc2N1
- inhibition [1]: < 50%
- inhibition (Homo sapiens [2]): < 50%
- inhibition (Homo sapiens [3]): < 50%
- inhibition (Homo sapiens [4]): < 50%
- Activity (Mus musculus [5]): Non-toxic
- Time (CT26 [6]): 7.4 days
- inhibition [7]: < 50%
- inhibition [8]: < 50%
- inhibition in vivo at 100 mg/kg (Mus musculus [9]): 83%
- inhibition [10]: < 50%
- inhibition (Homo sapiens [11]): < 50%
- inhibition [12]: < 50%
- inhibition [13]: < 50%
- inhibition in vivo at 50 mg/kg (Mus musculus [14]): 42%
- Time (CT26 [15]): 6.4 days
- inhibition (Homo sapiens [16]): < 50%
- inhibition [17]: < 50%
- inhibition (Homo sapiens [18]): < 50%
- inhibition in vivo at 100 mg/kg (CT26 [19]): 40%
- inhibition [20]: < 50%
- inhibition [21]: < 50%
- inhibition in vivo at 100 mg/kg (CT26 [22]): 64%
- inhibition [23]: < 50%
- inhibition [24]: < 50%
- inhibition in vivo at 200 mg/kg (CT26 [25]): 63%
- inhibition (Homo sapiens [26]): < 50%
- inhibition [27]: < 50%
- IC50 [28]: 35.8 nM
- inhibition [29]: < 50%
- inhibition at 10 µM (hERG (KCNH2)): < 50%
- inhibition [30]: < 50%
- inhibition [31]: < 50%
- inhibition [32]: < 50%
- half-life [33]: 2.3 h
- inhibition [34]: < 50%
- inhibition [35]: < 50%
- inhibition [36]: < 50%
- Cmax [37]: 2590 ng/mL
- inhibition (Homo sapiens [38]): < 50%
- inhibition [39]: < 50%
- inhibition [40]: < 50%
- concentration at 2 h [41]: 4 µM
- inhibition (Homo sapiens [42]): < 50%
- inhibition (Homo sapiens [43]): < 50%
- clearance [44]: 15.9 mL/min/kg
- inhibition [45]: < 50%
- inhibition [46]: 62%
